Test results taken from patent US20240400553A1, “AMINE BASED MATRIPTASE 2 INHIBITORS AND USES THEREOF” (Disc Medicine, Inc., priority 2023, published 2024).
Like-named read-outs stand apart in the source and are kept apart here.

Target: T1, Human Recombinant Matriptase 2 (Homo sapiens, UniProt Q8IU80)
T1 construct: made in house
T1 sequence (Q8IU80 1-811): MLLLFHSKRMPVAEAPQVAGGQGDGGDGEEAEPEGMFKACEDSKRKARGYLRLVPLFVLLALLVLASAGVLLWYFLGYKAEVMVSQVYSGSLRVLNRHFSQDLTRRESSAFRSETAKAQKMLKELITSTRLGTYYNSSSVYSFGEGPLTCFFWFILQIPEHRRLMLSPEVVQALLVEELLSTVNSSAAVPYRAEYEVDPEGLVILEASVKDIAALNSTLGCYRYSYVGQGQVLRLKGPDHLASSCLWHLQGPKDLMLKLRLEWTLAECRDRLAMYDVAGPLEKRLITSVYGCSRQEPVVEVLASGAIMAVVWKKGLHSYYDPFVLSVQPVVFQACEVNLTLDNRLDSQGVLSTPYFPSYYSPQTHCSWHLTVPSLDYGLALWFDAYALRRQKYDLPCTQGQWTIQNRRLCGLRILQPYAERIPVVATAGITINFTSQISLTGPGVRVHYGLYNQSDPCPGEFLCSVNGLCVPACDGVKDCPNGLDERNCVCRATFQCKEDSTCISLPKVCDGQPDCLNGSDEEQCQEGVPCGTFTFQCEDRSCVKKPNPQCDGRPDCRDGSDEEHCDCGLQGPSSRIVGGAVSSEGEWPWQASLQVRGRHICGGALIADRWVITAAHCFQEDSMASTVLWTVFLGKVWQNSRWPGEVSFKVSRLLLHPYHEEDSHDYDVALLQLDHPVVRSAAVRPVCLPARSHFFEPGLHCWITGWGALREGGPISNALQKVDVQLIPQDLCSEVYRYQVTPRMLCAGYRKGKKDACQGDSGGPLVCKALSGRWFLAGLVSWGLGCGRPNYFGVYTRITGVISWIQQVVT
Assay: Matriptase 2 inhibition, fluorescence based assay (Method I)
Type: biochemical
Procedure, shortened: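 In-house recombinant enzyme (3.5 nM), preincubated 30 min with compound, then Boc-Gln-Ala-Arg-AMC substrate (62 μM) in 50 mM Tris pH 7.5, 150 mM NaCl, 0.01% gelatin, 1% DMSO, 25 °C. Fluorescence (Ex 360/Em 480 nm) read 60 min after substrate; IC50 from variable-slope sigmoidal fit of % inhibition.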

[1] = Table A, Ki of Matriptase-2, read-out: Mat-2 Ki
[2] = Table A, Ki of Matriptase-2 given as class symbols, read-out: Mat-2 Ki

| Ki [1] | Compound | further results |
| --- | --- | --- |
| ≤ 0.1 µM | CN1CCC(CCNC(=O)c2cc3ccc(CN)nc3n2Cc2cc(NS(=O)(=O)Cc3ccccc3)cc3ccccc23)CC1 [Compound 44, 6-(aminomethyl)-N-[2-(1-methylpiperidin-4-yl)ethyl]-1-{[3-(phenyl-methanesulfonamido)-naphthalen-1-yl]methyl}-1H-pyrrolo[2,3-b]pyr-idine-2-carboxamide] | – |
| – | CN(C)Cc1nnc(-c2cc3ccc(CN)nc3n2Cc2cc(NS(=O)(=O)Cc3ccccc3)cc3ccccc23)o1 [Compound 347, N-(4-{[6-(aminomethyl)-2-{5-[(dimethylamino)-methyl]-1,3,4-oxadiazol-2-yl}-1H-pyrrolo[2,3-b]pyridin-1-yl]methyl}-naphthalen-2-yl)-1-phen-ylmethanesulfonamide] | Ki [2]: 0.1 to 0.5 µM |
| 0.1 to 0.5 µM | COCCOC(=O)c1cc2ccc(CN)nc2n1Cc1cc(NS(=O)(=O)Cc2ccccc2)cc2ccccc12 [Compound 95, 2-methoxyethyl 6-(aminomethyl)-1-{[3-(phenylmethanesulfon-amido)naphthalen-1-yl]-methyl}-1H-pyrrolo[2,3-b]pyridine-2-carboxylate] | – |
| – | CN1CCC(COC(=O)c2cc3ccc(CN)nc3n2Cc2cc(NS(=O)(=O)CC3CC3)cc3ccccc23)CC1 [Compound 2.28] | Ki (Table B, Human Recombinant Matriptase 2, 3.5 nM enzyme, 62 μM substrate, 30 mins preincubation, read-out: Mean Ki): 0.1 to 0.5 µM |
| – | NCc1ccc2cc(C(=O)Nc3nnn[nH]3)n(Cc3cc(NS(=O)(=O)CC[C@@H]4CCCN4)cc4ccccc34)c2n1 [Compound 208, 6-(aminomethyl)-1-[(3-(2-[(2S)-pyrrolidin-2-yl]ethanesulfonamido}-naphthalen-1-yl)methyl]-N-(1H-1,2,3,4-tetrazol-5-yl)-1H-pyrrolo[2,3-b]-pyridine-2-carboxamide] | Ki [2]: ≤ 0.1 µM |
| ≤ 0.1 µM | CC(C)n1ccnc1COC(=O)c1cc2ccc(CN)nc2n1Cc1cc(NS(=O)(=O)Cc2ccccc2)cc2ccccc12 [Compound 74, [1-(propan-2-yl)-1H-imidazol-2-yl]methyl 6-(aminomethyl)-1-{[3-(phenylmethanesulfon-amido)naphthalen-1-yl]-methyl}-1H-pyrrolo-[2,3-b]pyridine-2-car-boxylate] | – |
| ≤ 0.1 µM | Cn1ccc(COC(=O)c2cc3ccc(CN)nc3n2Cc2cc(NS(=O)(=O)Cc3ccccc3)cc3ccccc23)n1 [Compound 61, (1-methyl-1H-pyrazol-3-yl)methyl 6-(amino-methyl)-1-{[3-(phenyl-methanesulfonamido)-naphthalen-1-yl]methyl}-1H-pyrrolo[2,3-b]pyr-idine-2-carboxylate] | – |
| ≤ 0.1 µM | NCc1ccc2cc(C(=O)OCC3CCN(C=O)CC3)n(Cc3cc(NS(=O)(=O)Cc4ccccc4)cc4ccccc34)c2n1 [Compound 59, (1-formylpiperidin-4-yl)-methyl 6-(aminomethyl)-1-{[3-(phenylmethane-sulfonamido)naphthalen-1-yl]methyl}-1H-pyr-rolo[2,3-b]pyridine-2-carboxylate] | – |
| ≤ 0.1 µM | CNCCCOC(=O)c1cc2ccc(CN)nc2n1Cc1cc(NS(=O)(=O)Cc2ccccc2)cc2ccccc12 [Compound 35, 3-(methylamino)propyl 6-(aminomethyl)-1-{[3-(phenylmethanesulfon-amido)naphthalen-1-yl]-methyl}-1H-pyrrolo[2,3-b]pyridine-2-carboxylate] | – |
| ≤ 0.1 µM | CN1CCN[C@@H](COC(=O)c2cc3ccc(CN)nc3n2Cc2cc(NS(=O)(=O)Cc3ccccc3)cc3ccccc23)C1 (racemic) [Compound 41, (4-methylpiperazin-2-yl)methyl 6-(aminometh-yl)-1-{[3-(phenylmeth-ane-sulfonamido)naph-thalen-1-yl]methyl}-1H-pyrrolo[2,3-b]pyridine-2-carboxylate] | – |
| – | C[C@@H](C(=O)N(C)C)S(=O)(=O)Nc1cc(Cn2c(C(=O)O)cc3ccc(CN)nc32)c2ccccc2c1 (racemic) [Compound 255, rac-6-(aminomethyl)-1-({3-(dimethylcarbam-oyl)ethanesulfonamido]-naphthalen-1-yl}methyl)-1H-pyrrolo[2,3-b]pyr-idine-2-carboxylic acid] | Ki [2]: ≤ 0.1 µM |
